# Results taken from US5834506A, “Dihydropyrones with improved antiviral activity” (Warner-Lambert Company, priority 1997, dated 1998).
# Where a name gives a salt, the structure may show the parent alone. Read-outs that look alike come from different tables or passages of the source.
# Legend:
# [1] = biological target: T1, HIV-1 protease (Human immunodeficiency virus type 1 group M subtype B, UniProt P04585); assay: biochemical; conditions: read-out: Inhib of HIV-Protease IC50
# T1 construct: Recombinant HIV-1 protease (>96% purity); purchased Bachem Bioscience Inc. (King of Prussia, PA)
# From the text: The testing of specific 5,6-dihydropyrones as inhibitors of the HIV aspartyl protease, based on the study of the hydrolysis of an undecapeptide enzyme substrate, and the testing of the 5,6-dihydropyrones as inhibitors of viral growth and infectivity, based on the study of infection of H9 cell lines by the HIV-1iiib strain, are also disclosed. […] The methods employed follow the procedures of Tummino, et al. (Archives of Biochemistry and Biophysics 1995, 316, 523).
# (§1) The compounds of the present invention were evaluated for their in vitro inhibition of HIV-1 protease and for their antiviral efficacy in HIV infected lymphocytes.
# Recombinant HIV-1 protease (>96% purity) and HIV protease substrate III (the undecapeptide H-His-Lys-Ala-Arg-Val-Leu-Nph-Glu-Ala-Nle-Ser-NH2,>97% purity) were purchased from Bachem Bioscience Inc. (King of Prussia, PA).
# The methods employed follow the procedures of Tummino, et al. (Archives of Biochemistry and Biophysics 1995, 316, 523). […] (total volume, 100 μl). […] The final inhibitor concentrations used were 0 (0.1, 0.2, in some experiments), 0.5, 1, 2, 5, 10, 20, 50, and 100 μM. The solution was mixed, incubated for 5 minutes and the reaction quenched by addition of trifluoracetic acid, 2% final. The (leu-p-nitro-phe) bond of the substrate is cleaved by the enzyme and substrate and products separated by reverse-phase HPLC. Absorbance was measured at 220 nm, peak areas determined, and percentage conversion to product used to calculate percentage control (=[% conversion (+inhibitor)/% conversion (-inhibitor)]×100).
# [2] = Cellular toxicity in uninfected CEM cells (TC50); type: cell-based; conditions: human, inhibits 50% of the viability of uninfected cells
# Experimental: (§2) Compounds were tested in lymphocyte derived CEM cells using the XTT cytopathic procedures and were performed at Southern Research Institute (Buckheit, et. al. Antiviral Res. 1993, 21, 247; see also Weislow, et al. J Nat. Cancer Inst., 1989, 81, 577). Compound concentrations were 0.32, 1, 3.2, 10, 32 and 100 uM. The EC50 represents the concentration of agent which reduces HIV cytopathic effects 50% relative to untreated control. EC95 represents the concentration of agent protecting the cells 95% relative to untreated control. Cellular toxicity of the agents are estimated from the TC50 which represents the concentration of the agent which inhibits 50% of the viability of uninfected cells.
# [3] = test system: HIV in lymphocyte derived CEM cells; assay: Cellular Infection Assay, antiviral efficacy in HIV infected CEM cells (XTT cytopathic procedure); type: cell-based; conditions: Human immunodeficiency virus 1, CCRF-CEM, CEM cells; for EC95: protecting the cells 95% relative to untreated control; for EC50: reduces HIV cytopathic effects 50% relative to untreated control, read-out: Antiviral Efficacy EC50
# Experimental: as §1, §2
# [4] = 6.0 nM HIV-1 protease, 40 μM substrate III, 37° C., 5 minutes
Structure (SMILES),"IC50 [1, 4] [µM]",EC50 [3] [µM],IC50 [1] [µM],CC50 [2] [µM],EC95 [3] [µM]
"Cc1cc(SC2=C(O)CC(C)(CCc3ccc(O)cc3)OC2=O)c(C(C)(C)C)cc1OCCO (racemic) [Example 1, 3-[2-tert-Butyl-4-(2-hydroxy-ethoxy)-5-methyl-phenylsulfanyl]-4-hydroxy-6-[2-(4-hydroxy-phenyl)-ethyl]-6-methyl-5,6-dihydro-pyran-2-one, (+/-)]",0.0068,3.4,–,> 100,18
"Cc1cc(SC2=C(O)CC(CCc3ccc(O)cc3)(C(C)C)OC2=O)c(C(C)(C)C)cc1CO (racemic) [Example 2, 3-[2-tert-Butyl-4-hydroxymethyl-5-methyl-phenylsulfanyl]-4-hydroxy-6-[2-(4-hydroxy-phenyl)-ethyl]-6-isopropyl-5,6-dihydro-pyran-2-one, (+/-)]",–,0.6,0.0036,> 100,1
CCNS(=O)(=O)Oc1cc(C(C)(C)C)c(SC2=C(O)CC(C)(CCc3ccc(O)cc3)OC2=O)cc1C (racemic) [Example 3],0.0023,1.5,–,66,12
Cc1cc(SC2=C(O)CC(C)(CCc3ccc(O)cc3)OC2=O)c(C(C)(C)C)cc1OS(=O)(=O)N(C)C (racemic) [Example 4],–,2.5,0.0016,71,17
"Cc1cc(SC2=C(O)CC(CCc3ccc(O)cc3)(C(C)C)OC2=O)c(C(C)(C)C)cc1OCCO (racemic) [Example 5, 3-[2-tert-Butyl-4-(2-hydroxy-ethoxy)-5-methyl-phenylsulfanyl]-4-hydroxy-6-[2-(4-hydroxy-phenyl)-ethyl]-6-isopropyl-5,6-dihydro-pyran-2-one, (+/-)]",0.0028,1.5,–,66,3.2
"Cc1cc(SC2=C(O)CC(C)(CCc3ccc(O)cc3)OC2=O)c(C(C)(C)C)cc1OS(=O)(=O)NC(C)(C)C (racemic) [Example 6, tert-Butyl-sulfamic acid 5-tert-Butyl-4-{4-hydroxy-6-[2-(4-hydroxy-phenyl)-ethyl]-6-methyl-2-oxo-5,6-dihydro-2H-pyran-3-ylsulfanyl}-2-methyl-phenyl ester, (+/-)]",0.0038,2.3,–,56,8.5
"CCCCC1(CCc2ccc(O)cc2)CC(O)=C(Sc2cc(C)c(CO)cc2C(C)(C)C)C(=O)O1 (racemic) [Example 7, 6-Butyl-3-[2-tert-butyl-4-hydroxymethyl-5-methyl-phenylsulfanyl]-4-hydroxy-6-[2-(4-hydroxy-phenyl)-ethyl]-5,6-dihydro-pyran-2-one, (+/-)]",0.0041,0.9,–,63,3
"CCNS(=O)(=O)Oc1cc(C(C)(C)C)c(SC2=C(O)CC(CCc3ccc(O)cc3)(C3CCCCC3)OC2=O)cc1C (centres unmarked) [Example 8, Ethyl-sulfamic acid 5-tert-butyl-4-{6-cyclohexyl-4-hydroxy-6-[2-(4-hydroxy-phenyl)-ethyl]-2-oxo-5,6-dihydro-2H-pyran-3-ylsulfanyl}-2-methyl-phenyl ester]",0.0048,1.4,–,67,5.3
"Cc1cc(SC2=C(O)CC(CCc3ccc(O)cc3)(C3CCCCC3)OC2=O)c(C(C)(C)C)cc1CO (centres unmarked) [Example 9, 3-(2-tert-Butyl-4-hydroxymethyl-5-methyl-phenylsulfanyl)-6-cyclohexyl-4-hydroxy-6-[2-(4-hydroxy-phenyl)-ethyl]-5,6-dihydro-pyran-2-one]",–,0.5,0.0025,75,1.2
"Cc1cc(SC2=C(O)CC(CCc3ccc(O)cc3)(C3CCCCC3)OC2=O)c(C(C)(C)C)cc1O (centres unmarked) [Example 10, 3-(2-tert-Butyl-4-hydroxy-5-methyl-phenylsulfanyl)-6-cyclohexyl-4-hydroxy-6-[2-(4-hydroxy-phenyl)-ethyl]-5,6-dihydro-pyran-2-one]",0.0029,3.1,–,73,8.9

# Now from value to compound, other results behind:
"IC50 [1, 4] [µM]",EC50 [3] [µM],IC50 [1] [µM],Structure (SMILES),CC50 [2] [µM],EC95 [3] [µM]
–,> 55,0.035,"Cc1ccc(C(C)(C)C)c(SC2=C(O)CC(CCc3ccccc3)(c3ccccc3)OC2=O)c1 (racemic) [Ref B, 3-(2-tert-Buty5-methyl-phenylsulfanyl)-4-hydroxy-6-phenethyl-6-phenyl-5,6-dihydro-pyran-2-one, (+/-), reference compound]",55,–
0.013,3.7,–,"Cc1cc(SC2=C(O)CC(C)(CCc3ccc(O)cc3)OC2=O)c(C(C)(C)C)cc1N (centres unmarked) [Example 11, 3-(4-Amino-2-tert-butyl-5-methyl-phenylsulfanyl)-4-hydroxy-6-[2-(4-hydroxy-phenyl)-ethyl]-6-methyl-5,6-dihydro-pyran-2-one monohydrochloride]",> 100,9.1
0.0021,5,–,"Cc1cc(SC2=C(O)CC(C)(CCc3ccc(O)cc3)OC2=O)c(C(C)(C)C)cc1NS(=O)(=O)c1ccc(C#N)cc1 (centres unmarked) [Example 13, N-(5-tert-Butyl-4-{4-hydroxy-6-[2-(4-hydroxy-phenyl)-ethyl]-6-methyl-2-oxo-5,6-dihydro-2H-pyran-3-ylsulfanyl}-2-methyl-phenyl)-4-cyano-benzenesulfonamide]",> 100,20
0.0013,6.3,–,"Cc1cc(SC2=C(O)CC(CCc3ccc(O)cc3)(CCc3ccc(O)cc3)OC2=O)c(C(C)(C)C)cc1CO [Example 14, 3-(2-tert-Buty-4-hydroxymethyl-5-methyl-phenylsulfanyl)-4-hydroxy-6,6-bis-[2-(4-hydroxyphenyl)ethyl]-5,6-dihydro-pyran-2-one]",69,24
0.0031,3.7,–,"Cc1cc(SC2=C(O)CC(CCc3ccc(N)cc3)(c3ccccc3)OC2=O)c(C(C)(C)C)cc1CO (centres unmarked) [Example 15, 6-[2-(4-aminophenyl)ethyl]-3-(2-tert-butyl-4-hydroxymethyl-5-methyl-phenylsulfanyl)-4-hydroxy-6-phenyl-5,6-dihydro-pyran-2-one]",94,9.4
0.0016,1.2,–,"Cc1cc(SC2=C(O)CC(CCc3ccc(N)cc3)(CCc3ccc(N)cc3)OC2=O)c(C(C)(C)C)cc1CO [Example 16, 6,6-Bis-[2-(4-aminophenyl)ethyl]-3-(2-tert-butyl-4-hydroxymethyl-5-methyl-phenylsulfanyl)-4-hydroxy-5,6-dihydro-pyran-2-one]",72,15
0.0039,1.9,–,"Cc1cc(SC2=C(O)C[C@@](CCc3ccccc3)(c3ccccc3)OC2=O)c(C(C)(C)C)cc1CO [Example 17, 3-(tert-Butyl4-hydroxymethyl-5-methyl-phenylsulfanyl)-4-hydroxy-6-phenethyl-6-phenyl-5,6-dihydro-pyran-2-one (S isomer)]",60,7.5
0.0029,5,–,"Cc1cc(SC2=C(O)CC(CCc3ccc(O)cc3)(CCc3ccc(O)cc3)OC2=O)c(C(C)(C)C)cc1N [Example 20, 3-(4-Amino-2-tert-butyl-5-methyl-phenylsulfanyl)-4-hydroxy-6,6-bis[2-(4-hydroxy-phenyl)ethyl]-5,6-dihydro-pyran-2-one]",65,9.6
–,< 0.3,–,Cc1cc(SC2=C(O)C[C@@](CCc3cccc(O)c3)(C3CCCC3)OC2=O)c(C(C)(C)C)cc1CO [Example 40],> 100,< 0.3
–,0.8,–,CCc1cc(SC2=C(O)CC(CCc3ccc(O)cc3)(C(C)C)OC2=O)c(C(C)(C)C)cc1CO (centres unmarked) [Example 97],> 100,2.8
–,0.33,–,Cc1cc(CCC2(C(C)C)CC(O)=C(Sc3cc(C)c(CO)cc3C(C)(C)C)C(=O)O2)ccc1O (centres unmarked) [Example 100],84,0.9
